Here are results for seven compounds from paper PMC7509987 (Biochemistry, 2020).

Read-outs that look alike come from different tables or passages of the source.

Data set [1] addresses mTrxR-C(αMe)UG (Mus musculus, UniProt Q9JLT4). Put plainly: Inhibition of Trx-reductase activity by electrophiles. The data set is classed as biochemical.
For another data set, the target named is mTrxR-CUG (Mus musculus, UniProt Q9JLT4). The data set is described as above. In kind it is biochemical.
Data set [2] has as its target T1, DmTrxR-CCS (Drosophila melanogaster, UniProt P91938). The data set is described as above. In kind it is biochemical, D. melanogaster. The note with it: 7 μM acrolein, pH 7, 10 min, 22 °C.
Target sequence in this assay (P91938 1-491 isoform P91938-2): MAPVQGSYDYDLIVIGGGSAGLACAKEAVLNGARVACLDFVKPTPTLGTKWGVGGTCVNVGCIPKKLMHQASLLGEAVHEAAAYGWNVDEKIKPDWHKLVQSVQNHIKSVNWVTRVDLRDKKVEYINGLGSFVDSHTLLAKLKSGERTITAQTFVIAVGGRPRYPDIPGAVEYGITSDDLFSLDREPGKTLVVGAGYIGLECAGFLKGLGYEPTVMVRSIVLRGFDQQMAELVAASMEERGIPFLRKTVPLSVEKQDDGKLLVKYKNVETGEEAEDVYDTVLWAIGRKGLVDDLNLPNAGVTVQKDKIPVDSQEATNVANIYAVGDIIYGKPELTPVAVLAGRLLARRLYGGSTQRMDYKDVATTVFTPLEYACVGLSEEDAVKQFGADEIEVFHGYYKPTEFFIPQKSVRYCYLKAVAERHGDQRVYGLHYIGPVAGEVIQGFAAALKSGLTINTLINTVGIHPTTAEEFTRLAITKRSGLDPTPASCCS
Data set [3] has as its system mTrxR-C(αMe)UG. In kind it is biochemical. The settings on record: read-out: KM (μM), Table 3, DTNB as substrate; n = 3.
A further data set deals with GPX. The note with it: great excess of 4-hydroxynonenal (1 mM); cited from earlier work.
Data set [4] deals with T1, DmTrxR-CCS. Put plainly: NADPH-pre-reduced enzyme. The data set is classed as biochemical. The settings on record: n = 3.
Target sequence in this assay (P91938 106-596): as the sequence (P91938 1-491 isoform P91938-2) above, with A2S, P3T, V4K, Q5G counted along it
Data set [5] is described as follows: Solubility in aqueous solutions. The data set is classed as physicochemical.
Data set [6] has as its system mTrxR-C(αMe)UG. The data set is classed as biochemical. The note with it: read-out: KM (μM), Table 4, selenocysteamine as substrate; n = 3.

mTrxR-C(αMe)UG (Mus musculus, UniProt Q9JLT4), sequence (Q9JLT4 35-524): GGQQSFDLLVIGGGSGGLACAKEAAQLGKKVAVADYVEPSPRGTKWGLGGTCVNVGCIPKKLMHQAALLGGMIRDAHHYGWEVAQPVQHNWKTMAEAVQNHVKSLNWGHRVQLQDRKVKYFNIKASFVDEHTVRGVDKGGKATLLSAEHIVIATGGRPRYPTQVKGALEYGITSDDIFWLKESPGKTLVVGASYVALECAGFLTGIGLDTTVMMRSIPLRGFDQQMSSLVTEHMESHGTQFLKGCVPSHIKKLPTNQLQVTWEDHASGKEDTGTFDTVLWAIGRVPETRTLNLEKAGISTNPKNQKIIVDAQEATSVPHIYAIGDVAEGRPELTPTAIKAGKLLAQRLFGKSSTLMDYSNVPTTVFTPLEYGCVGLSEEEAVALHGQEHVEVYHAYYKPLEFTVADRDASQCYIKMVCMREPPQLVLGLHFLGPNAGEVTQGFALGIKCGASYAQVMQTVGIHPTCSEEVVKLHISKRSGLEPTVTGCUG
mTrxR-CUG, sequence (Q9JLT4 35-524): as above

For `C=CC=O` [Acrolein, acrolein], the “inhibition of Trx-reductase activity” value against mTrxR-C(αMe)UG [1] (800 nM acrolein, pH 5.5, 10 min, 22 °C) was 75-85%; at mTrxR-CUG (2.5 μM acrolein, pH 4.6, 10 min, 22 °C), 75-85%; against DmTrxR-CCS [2], 75-85%.

Usually Km stands for the concentration of substrate that gives half-maximal velocity. For `O=C(O)c1cc(SSc2ccc([N+](=O)[O-])c(C(=O)O)c2)ccc1[N+](=O)[O-]` [DTNB, 5,5′-dithiobis(2-nitrobenzoic acid)], the Km with mTrxR-C(αMe)UG [3] came out at 5 ± 0.9 µM.

On to `CCCCCC(O)/C=C/C=O` (stereo not drawn) [4-Hydroxynonenal, 4-hydroxynonenal], for which, in the data set with GPX, the “inhibition of GPX” value is recorded as “could not be completely inhibited”.

Usually IC50 stands for the concentration that inhibits the measured activity by half. Read a low IC50 as greater potency. At DmTrxR-CCS [4], `C=CC=O` [Acrolein, acrolein (prop-2-enal)] showed a concentration for half-maximal inhibition (IC50) of 7 µM.

Broadly, the solubility is the dissolved amount per volume that the medium holds. Read a high solubility as a readily soluble substance. `COc1cc(/C=C/C(=O)CC(=O)/C=C/c2ccc(O)c(OC)c2)ccc1O` [Curcumin, curcumin] showed a solubility in data set [5] of at most 100 µM. Besides, the Trx-reductase activity remains at mTrxR-C(αMe)UG [1] (at 100 uM curcumin, mutant mTrxR) is given as ~ 65%. At mTrxR-CUG, this compound came in with an IC50 of 34 µM.

On to `NCC[Se][Se]CCN` [selenocysteamine, selenocysteamine (diselenide, used as dichloride; selenocystamine)], for which the Km with mTrxR-C(αMe)UG [6] was 92 ± 0.9 µM.

Consider `O=C/C=C/c1ccccc1` [Cinnamaldehyde], for which the IC50 was 230 µM at mTrxR-C(αMe)UG [1] and 225 µM at mTrxR-CUG.
